Data on eleven compounds can be found in article PMC6263254, “Solid-Phase Synthesis of Arylpiperazine Derivatives and Implementation of the Distributed Drug Discovery (D3) Project in the Search for CNS Agents” (Molecules, 2011).

Structures are written as SMILES. Where two headings read alike, the source gives them in different places.

In one test the test system is 5-HT1A receptors. The conditions noted are these: cited from earlier work.
A further test deals with 5-HT2A. As to conditions: cited from earlier work.
For test [1], the target named is T1, native serotonin 5-HT1A receptors (Rattus norvegicus, UniProt P19327).
T1 construct: from tissue; host or cells: rat hippocampus membranes
T1 sequence (P19327 1-422): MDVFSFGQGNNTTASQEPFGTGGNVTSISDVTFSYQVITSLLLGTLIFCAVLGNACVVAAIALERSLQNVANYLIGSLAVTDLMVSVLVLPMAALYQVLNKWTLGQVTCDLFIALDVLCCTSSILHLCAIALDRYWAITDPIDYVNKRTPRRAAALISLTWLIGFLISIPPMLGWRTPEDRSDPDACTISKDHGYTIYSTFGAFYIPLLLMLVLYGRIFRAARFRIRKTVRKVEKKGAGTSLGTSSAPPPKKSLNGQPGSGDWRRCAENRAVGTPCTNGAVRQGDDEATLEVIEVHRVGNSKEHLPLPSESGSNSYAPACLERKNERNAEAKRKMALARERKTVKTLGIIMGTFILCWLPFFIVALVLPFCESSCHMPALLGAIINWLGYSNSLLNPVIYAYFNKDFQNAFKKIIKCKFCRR
As to the kind of experiment: Radioligand binding, [3H]-8-OH-DPAT, rat hippocampal membranes. Further: SEM ≤ 22%. The conditions noted are these: read-out: Ki 5-HT1A. How it is done:
(§1) Membrane preparation and a general assay procedure were carried out according to the previously published protocols. Two compound concentrations were tested: 0.1 and 1 μM, each run in triplicate.

In test [2] the target is T2, native serotonin 5-HT2A receptors (Rattus norvegicus, UniProt P14842).
T2 construct: from tissue; host or cells: rat cortex membranes
As to the kind of experiment: Radioligand binding, [3H]-ketanserin, rat cortical membranes. On Ki 5-HT2A: SEM ≤ 22%. As to conditions: read-out: Ki 5-HT2A. How it is done: as §1

Details of test [3]: method as in PMID 17321139. As to conditions: doses of 5–20 mg/kg; ref [4]; cited from earlier work.

T2 sequence (P14842 whole entry): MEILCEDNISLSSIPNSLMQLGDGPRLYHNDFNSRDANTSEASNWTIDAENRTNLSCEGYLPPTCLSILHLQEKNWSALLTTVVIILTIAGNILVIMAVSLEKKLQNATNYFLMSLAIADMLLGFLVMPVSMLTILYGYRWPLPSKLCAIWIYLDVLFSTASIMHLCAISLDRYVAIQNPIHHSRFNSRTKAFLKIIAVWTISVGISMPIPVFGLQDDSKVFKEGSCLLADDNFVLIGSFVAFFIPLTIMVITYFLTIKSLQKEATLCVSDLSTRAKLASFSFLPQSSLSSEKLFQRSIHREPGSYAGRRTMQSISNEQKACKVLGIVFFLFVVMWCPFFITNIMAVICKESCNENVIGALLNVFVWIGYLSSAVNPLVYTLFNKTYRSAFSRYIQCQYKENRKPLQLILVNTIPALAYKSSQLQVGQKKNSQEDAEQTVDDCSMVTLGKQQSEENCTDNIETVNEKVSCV

Take `O=c1[nH]c2ccccc2n1CCN1CCN(c2cccc(C(F)(F)F)c2)CC1` [Flibanserin]: the “functional activity at 5-HT1A receptors” value in the test on 5-HT1A receptors (ref [1],[2]) is reported as “agonist”. Further, the “functional activity at 5-HT2A receptors” value in the test on 5-HT2A (ref [1],[2]) is reported as “antagonist”.

With `O=C(N[C@H]1CC(=O)N(CCCCN2CCN(c3cccc(C(F)(F)F)c3)CC2)C1=O)C1CCCCC1` [9{9,3}, N-((S)-1-{4-[4-((3-trifluoromethyl)phenyl)piperazin-1-yl]butyl}pyrrolidin-2,5-dion-3-yl)cyclohexanecarboxamide], the potency estimated from few doses in test [1] is 19 nM; in test [2] it was 70 nM.

Regarding `O=C(NCCCCN1CCN(c2cccc(C(F)(F)F)c2)CC1)[C@@H]1CCCN1C(=O)C12CC3CC(CC(C3)C1)C2` [10{9,6}, 1-(Adamantylcarbonyl)-N-{4-[4-((3-trifluoromethyl)phenyl)piperazin-1-yl]butyl}-L-prolinamide], the potency estimated from few doses in test [1] is 8 nM; in test [2] it was 699 nM.

On to `O=C(NCCCCN1CCN(c2cccc(C(F)(F)F)c2)CC1)[C@@H]1CCCN1C(=O)C1CCCC1` [10{9,2}, 1-(Cyclopentylcarbonyl)-N-{4-[4-((3-trifluoromethyl)phenyl)piperazin-1-yl]butyl}-L-prolinamide], for which the results for the potency estimated from few doses in test [1] and in test [2] were 26 nM and 191 nM, respectively.

Consider `O=C(N[C@H]1CC(=O)N(CCCN2CCN(c3cccc(C(F)(F)F)c3)CC2)C1=O)C1CCCCC1` [9{8,3}, N-((S)-1-{3-[4-((3-trifluoromethyl)phenyl)piperazin-1-yl]propyl}pyrrolidin-2,5-dion-yl)cyclohexanecarboxamide], for which the potency estimated from few doses is 170 nM in test [1] and 276 nM in test [2].

Take `O=C(NCCCN1CCN(c2cccc(C(F)(F)F)c2)CC1)[C@@H]1CCCN1C(=O)C12CC3CC(CC(C3)C1)C2` [10{8,6}, 1-(Adamantylcarbonyl)-N-{3-[4-((3-trifluoromethyl)phenyl)piperazin-1-yl]propyl}-L-prolinamide]: the potency estimated from few doses in test [1] was 42 nM; in test [2] it was 1650 nM.

As for `O=C1CC2(CCCC2)CC(=O)N1CCCCN1CCN(c2ncccn2)CC1` [buspirone, reference compound], in test [1], the potency estimated from few doses is 36 nM.

As to `COc1ccccc1N1CCN(CCCCN2C(=O)C[C@H](NC(=O)C3CCCCC3)C2=O)CC1` [PZ-68], in test [3], the “in vivo antidepressant-like activity” value was “showed in vivo antidepressant-like activity”. For the same compound, the “functional activity at 5-HT1A receptors” value in the test on 5-HT1A receptors (ref [4]) is recorded as “partial agonist”. In addition, the “functional activity at 5-HT2A receptors” value in the test with 5-HT2A (ref [4]) was “antagonist”.

Consider `O=C1C[C@H](NC(=O)C23CC4CC(CC(C4)C2)C3)C(=O)N1CCCCN1CCN(c2cccc(C(F)(F)F)c2)CC1` [9{9,6}, N-((S)-1-{4-[4-((3-trifluoromethyl)phenyl)piperazin-1-yl]butyl}pyrrolidin-2,5-dion-yl)-1-adamatanecarboxamide], for which the results for the potency estimated from few doses in test [1] and in test [2] were 21 nM and 39 nM, respectively.

As to `O=C(N[C@H]1CC(=O)N(CCCCN2CCN(c3cccc(C(F)(F)F)c3)CC2)C1=O)C1CCCC1` [9{9,2}, N-((S)-1-{4-[4-((3-trifluoromethyl)phenyl)piperazin-1-yl]butyl}pyrrolidin-2,5-dion-yl)cyclopentanecarboxamide], the potency estimated from few doses in test [1] was 24 nM; in test [2], 79 nM.

On to `CC(=O)N[C@H]1CC(=O)N(CCCN2CCN(c3cccc(C(F)(F)F)c3)CC2)C1=O` [9{8,1}, N-((S)-1-{3-[4-((3-trifluoromethyl)phenyl)piperazin-1-yl]propyl}pyrrolidin-2,5-dion-yl)acetamide], for which the potency estimated from few doses in test [1] was 129 nM; in test [2], 164 nM.
